Literature values as cited in patent US12715832B2, “Co-crystal of coenzyme QH and nicotinamide, preparation method therefor and use thereof” (COCRYSTAL TECHNOLOGY (JIAXING) CO., LTD, priority 2021, dated 2026).

Details: in the air at 25° C. for 28 days

coenzyme QH oxidized: about 6%
Structure (SMILES): COc1c(O)c(C)c(C/C=C(\C)CC/C=C(\C)CC/C=C(\C)CC/C=C(\C)CC/C=C(\C)CC/C=C(\C)CC/C=C(\C)CC/C=C(\C)CC/C=C(\C)CCC=C(C)C)c(O)c1OC [stable polymorph of coenzyme QH, coenzyme QH]
